Test results from ChEMBL document CHEMBL1153803, “Parallel synthesis of chiral pentaamines and pyrrolidine containing bis-heterocyclic libraries. Multiple scaffolds with multiple building blocks: a double diversity for the identification of new antitubercular compounds” (Bioorg Med Chem Lett, 2009).
Values after ≈ are worked out from the molar mass of the structure shown.

Legend:
[1] = tested on: Mycobacterium tuberculosis; assay: Antimicrobial activity against Mycobacterium tuberculosis H37Rv ATCC 27294 at 6.25 ug/mL by broth microdilution assay; assay type: functional
[2] = Selective index, the ratio of IC50 in the african green monkey Vero cells to the MIC to Mycobacterium tuberculosis H37Rv ATCC 27294; assay type: functional
Vero = assay: Cytotoxicity against african green monkey Vero cells at after 72 hrs by MTT assay; assay type: cell-based, Chlorocebus sabaeus; conditions: Chlorocebus sabaeus, Vero, 72 h; read-out: IC50
[3] = tested on: Mycobacterium tuberculosis; assay: Antimicrobial activity against Mycobacterium tuberculosis H37Rv ATCC 27294 by microplate Almar blue assay; assay type: functional; conditions: Mycobacterium tuberculosis, H37Rv ATCC 27294; read-out: MIC

Compound	inhibition at 6.25 µg/mL [1]	Selectivity Index [2]	IC50 (Vero)	MIC [3]
CCCCCCCN1CCN([C@@H](Cc2ccccc2)CN2CCCC2CN2CCNC[C@@H]2Cc2ccccc2)C[C@@H]1Cc1ccccc1 (stereo not given in full)	99%	0.26	1.03 µg/mL (≈ 1.58 µM)	3.9 µg/mL (≈ 6 µM)
CC(C)CCCN1C(=N)N([C@@H](Cc2ccccc2)CN2CCCC2CN2C(=N)NC[C@@H]2Cc2ccccc2)C[C@@H]1Cc1ccccc1 (stereo not given in full)	93%	3.97	31 µg/mL (≈ 48.9 µM)	7.8 µg/mL (≈ 12.3 µM)
COc1cccc(CCN2CCN([C@@H](Cc3ccccc3)CN3CCCC3CN3CCNC[C@@H]3Cc3ccccc3)C[C@@H]2Cc2ccccc2)c1 (stereo not given in full)	99%	0.08	0.32 µg/mL (≈ 0.466 µM)	3.9 µg/mL (≈ 5.69 µM)
CC(C)C[C@@H](CN1CCCC1CN1CCNC[C@@H]1Cc1ccccc1)N1CCN(CCc2ccccc2)[C@@H](Cc2ccccc2)C1 (stereo not given in full)	100%	0.25	0.99 µg/mL (≈ 1.59 µM)	3.9 µg/mL (≈ 6.27 µM)
N=C1NC[C@H](Cc2ccccc2)N1CC1CCCN1C[C@H](Cc1ccccc1)N1C[C@H](Cc2ccccc2)N(CCC2CC3CCC2C3)C1=N (stereo not given in full)	94%	1.98	15.5 µg/mL (≈ 23 µM)	7.8 µg/mL (≈ 11.6 µM)
N=C1NC[C@H](Cc2ccccc2)N1CC1CCCN1C[C@H](Cc1ccccc1)N1C[C@H](Cc2ccccc2)N(CCc2ccc(Cl)c(Cl)c2)C1=N (stereo not given in full)	95%	6.3	24.5 µg/mL (≈ 33.9 µM)	3.9 µg/mL (≈ 5.4 µM)
Brc1cccc(CCCN2CCN([C@@H](Cc3ccccc3)CN3CCCC3CN3CCNC[C@@H]3Cc3ccccc3)C[C@@H]2Cc2ccccc2)c1 (stereo not given in full)	99%	0.29	1.12 µg/mL (≈ 1.5 µM)	3.9 µg/mL (≈ 5.21 µM)
N=C1NC[C@H](Cc2ccccc2)N1CC1CCCN1C[C@H](Cc1ccccc1)N1C[C@H](Cc2ccccc2)N(CC2CCCCCC2)C1=N (stereo not given in full)	92%	10.1	39.5 µg/mL (≈ 59.8 µM)	3.9 µg/mL (≈ 5.91 µM)
N=C1NC[C@H](Cc2ccccc2)N1CC1CCCN1C[C@H](Cc1ccccc1)N1C[C@H](Cc2ccccc2)N(CCC23CC4CC(CC(C4)C2)C3)C1=N (stereo not given in full)	91%	3.7	14.5 µg/mL (≈ 20.3 µM)	3.9 µg/mL (≈ 5.48 µM)
c1ccc(C[C@H]2CNCCN2CC2CCCN2C[C@H](Cc2ccccc2)N2CCN(CCCC3CCCCC3)[C@@H](Cc3ccccc3)C2)cc1 (stereo not given in full)	99%	0.47	0.94 µg/mL (≈ 1.39 µM)	2 µg/mL (≈ 2.96 µM)
CC(C)[C@@H](CN1CCCC1CN1CCNC[C@@H]1Cc1ccccc1)N1CCN(CCc2ccccc2)[C@@H](Cc2ccccc2)C1 (stereo not given in full)	100%	0.26	1 µg/mL (≈ 1.64 µM)	3.9 µg/mL (≈ 6.42 µM)
Cc1cccc(CCN2CCN([C@@H](Cc3ccccc3)CN3CCCC3CN3CCNC[C@@H]3Cc3ccccc3)C[C@@H]2Cc2ccccc2)c1 (stereo not given in full)	99%	0.27	1.05 µg/mL (≈ 1.57 µM)	3.9 µg/mL (≈ 5.82 µM)
CC(C)(C)C1CCC(CN2CCN([C@@H](Cc3ccccc3)CN3CCCC3CN3CCNC[C@@H]3Cc3ccccc3)C[C@@H]2Cc2ccccc2)CC1 (stereo not given in full)	97%	0.58	1.15 µg/mL (≈ 1.63 µM)	2 µg/mL (≈ 2.84 µM)
c1ccc(CCN2CCN([C@H](Cc3ccc4ccccc4c3)CN3CCCC3CN3CCNC[C@@H]3Cc3ccccc3)C[C@@H]2Cc2ccccc2)cc1 (stereo not given in full)	100%	0.27	1.06 µg/mL (≈ 1.5 µM)	3.9 µg/mL (≈ 5.52 µM)
Fc1cccc(CCN2CCN([C@@H](Cc3ccccc3)CN3CCCC3CN3CCNC[C@@H]3Cc3ccccc3)C[C@@H]2Cc2ccccc2)c1 (stereo not given in full)	98%	0.21	0.8 µg/mL (≈ 1.19 µM)	3.9 µg/mL (≈ 5.79 µM)
Fc1ccc(CCN2CCN([C@@H](Cc3ccccc3)CN3CCCC3CN3CCNC[C@@H]3Cc3ccccc3)C[C@@H]2Cc2ccccc2)cc1 (stereo not given in full)	98%	0.27	1.05 µg/mL (≈ 1.56 µM)	3.9 µg/mL (≈ 5.79 µM)
Cc1ccc(CN2CCN([C@@H](Cc3ccccc3)CN3CCCC3CN3CCNC[C@@H]3Cc3ccccc3)C[C@@H]2Cc2ccccc2)cc1 (stereo not given in full)	98%	0.23	0.88 µg/mL (≈ 1.34 µM)	3.9 µg/mL (≈ 5.95 µM)
N=C1NC[C@H](Cc2ccccc2)N1CC1CCCN1C[C@H](Cc1ccccc1)N1C[C@H](Cc2ccccc2)N(CCCCC2CCCCC2)C1=N (stereo not given in full)	91%	3.7	14.3 µg/mL (≈ 20.8 µM)	3.9 µg/mL (≈ 5.67 µM)
c1ccc(C[C@H]2CNCCN2CC2CCCN2C[C@H](Cc2ccccc2)N2CCN(CCc3ccc(-c4ccccc4)cc3)[C@@H](Cc3ccccc3)C2)cc1 (stereo not given in full)	97%	0.26	1 µg/mL (≈ 1.37 µM)	3.9 µg/mL (≈ 5.33 µM)
CC(CCN1CCN([C@@H](Cc2ccccc2)CN2CCCC2CN2CCNC[C@@H]2Cc2ccccc2)C[C@@H]1Cc1ccccc1)c1ccccc1 (stereo not given in full)	99%	0.22	0.87 µg/mL (≈ 1.27 µM)	3.9 µg/mL (≈ 5.7 µM)
